From US20260248824A1, “LIPID NANOPARTICLES” (SHIZUOKA PREFECTURAL UNIVERSITY CORPORATION, priority 2023, published 2026)

Tested on: Insulinoma INS-1 cells derived from rat pancreatic β cells
Assay: Antiapoptotic effects on pancreatic β cells (cleaved caspase-3 western blotting, thapsigargin-induced)
Format: cell-based
Conditions: thapsigargin 300 nM, nobiletin concentration 20 μM, 14 hours, FIG. 20
Description: Insulinoma INS-1 cells derived from rat pancreatic β cells were seeded into a 6-well dish at 8×10^5 cells/well. […] After 14 hours of treatment, the cells were collected and subjected to SDS-PAGE, and protein expression in pancreatic β cells was analyzed by western blotting using a cleaved caspase-3 antibody as an indicator of apoptosis. Correction was made using the expression level of 3-actin as an internal standard.

With `COc1ccc(-c2cc(=O)c3c(OC)c(OC)c(OC)c(OC)c3o2)cc1OC` [nobiletin alone, nobiletin] the “Suppression of thapsigargin-induced increase in cleaved caspase 3 (antiapoptotic activity)” value was “The effects were comparative with nobiletin alone”.
